Broadly, the IC50 is the concentration that gives 50% inhibition.

The target in assay [1] is Epidermal growth factor receptor (Homo sapiens, UniProt P00533). The experiment in a line: Inhibition of recombinant EGFR kinase cytoplasmic domain (unknown origin) expressed in baculovirus expression vector-infected insect sf9 cells assessed as level of autophosphorylation after 10 mins by DELFIA/time-resolved fluorometry.
The test system of another assay is HepG2. Briefly: Antiproliferative activity against human HepG2 cells after 48 hrs by MTT assay. The following applies: HepG2, 48 h. The format is functional, cell-based. For orientation: Formazan colour is commonly taken as a measure of viable cells.
Assay [2] relates to A549. The experiment in a line: Antiproliferative activity against human A549 cells after 48 hrs by MTT assay. The format is functional, cell-based. The following applies: A549, 48 h.
Assay [3] concerns A549. Briefly: Induction of apoptosis in human A549 cells assessed as nuclear fragmentation after 24 hrs by Hoechst 33258 staining-based fluorescence microscopy relative to control. The format is functional, cell-based.
For assay [4], the system named is A549. Briefly: Induction of apoptosis in human A549 cells assessed as nuclear fragmentation at 5 to 20 uM after 24 hrs by Hoechst 33258 staining-based fluorescence microscopy relative to control. The format is functional, cell-based.
Assay [5] deals with A549. The experiment in a line: Induction of apoptosis in human A549 cells assessed as nuclear condensation after 24 hrs by Hoechst 33258 staining-based fluorescence microscopy relative to control. The format is functional, cell-based.
The subject of assay [6] is A549. Briefly: Induction of apoptosis in human A549 cells assessed as nuclear condensation at 5 to 20 uM after 24 hrs by Hoechst 33258 staining-based fluorescence microscopy relative to control. The format is functional, cell-based.
Assay [7] has as its system A549. The experiment in a line: Induction of apoptosis in human A549 cells assessed as nuclear convolution and budding off into several fragments after 24 hrs by Hoechst 33258 staining-based fluorescence microscopy relative to control. The format is functional, cell-based.
Assay [8] deals with A549. The experiment in a line: Induction of apoptosis in human A549 cells assessed as nuclear convolution and budding off into several fragments at 5 to 20 uM after 24 hrs by Hoechst 33258 staining-based fluorescence microscopy relative to control. The format is functional, cell-based.

Calls of active or inactive are those of the source. The rule behind the calls is not given here.

Epidermal growth factor receptor, sequence (P00533 whole entry, the tested form may be a part): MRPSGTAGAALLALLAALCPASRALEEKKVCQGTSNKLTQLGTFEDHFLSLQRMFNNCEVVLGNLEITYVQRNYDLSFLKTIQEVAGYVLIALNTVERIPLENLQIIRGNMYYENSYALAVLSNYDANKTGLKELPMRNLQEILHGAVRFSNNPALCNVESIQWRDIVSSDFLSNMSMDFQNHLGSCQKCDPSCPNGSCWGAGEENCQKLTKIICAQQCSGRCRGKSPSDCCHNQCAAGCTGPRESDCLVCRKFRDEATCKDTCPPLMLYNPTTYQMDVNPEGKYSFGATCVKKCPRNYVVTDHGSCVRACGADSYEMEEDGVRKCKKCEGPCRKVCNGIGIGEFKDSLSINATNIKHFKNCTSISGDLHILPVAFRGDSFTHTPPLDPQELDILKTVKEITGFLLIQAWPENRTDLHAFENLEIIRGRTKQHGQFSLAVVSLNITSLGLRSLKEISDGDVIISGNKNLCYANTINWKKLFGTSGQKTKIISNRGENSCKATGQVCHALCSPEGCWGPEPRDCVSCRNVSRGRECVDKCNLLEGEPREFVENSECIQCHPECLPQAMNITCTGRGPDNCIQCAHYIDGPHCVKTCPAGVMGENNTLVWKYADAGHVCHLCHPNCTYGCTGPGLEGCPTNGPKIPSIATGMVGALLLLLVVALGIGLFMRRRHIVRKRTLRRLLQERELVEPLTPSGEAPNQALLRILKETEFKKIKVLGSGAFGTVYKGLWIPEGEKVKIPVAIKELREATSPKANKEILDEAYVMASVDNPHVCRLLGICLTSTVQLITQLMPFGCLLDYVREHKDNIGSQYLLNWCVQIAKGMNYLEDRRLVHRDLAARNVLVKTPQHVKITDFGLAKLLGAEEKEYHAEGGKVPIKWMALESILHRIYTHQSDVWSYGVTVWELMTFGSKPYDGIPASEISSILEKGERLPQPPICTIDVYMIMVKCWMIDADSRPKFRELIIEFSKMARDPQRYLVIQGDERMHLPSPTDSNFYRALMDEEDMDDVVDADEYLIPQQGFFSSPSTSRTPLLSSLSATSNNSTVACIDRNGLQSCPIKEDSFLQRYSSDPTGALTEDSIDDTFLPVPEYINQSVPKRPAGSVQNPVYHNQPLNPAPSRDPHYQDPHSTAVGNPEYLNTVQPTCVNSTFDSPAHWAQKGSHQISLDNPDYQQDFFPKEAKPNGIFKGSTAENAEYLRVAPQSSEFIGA

Regarding `O=C(/C=C/c1ccc(Br)s1)Nc1ccc2ncnc(Nc3cccc(Cl)c3)c2c1`, the 50% inhibitory concentration (IC50) in [1] was found to be 2.4 µM; with HepG2, 8.85 µM; in the assay on A549 [2] it was 1.58 µM.
`Clc1cccc(Nc2ncnc3ccc(NCc4ncc5ccccc5n4)cc23)c1`: the IC50 in the assay on HepG2 was 5.65 µM; in the assay on A549 [2] it was 1.71 µM.
The like results for `CCCCNc1ccc2ncnc(Nc3cccc(Cl)c3)c2c1` were, in that order, 7.85 µM and 4.01 µM.
The like results for `Cc1cccc(/C=C/C(=O)Nc2ccc3ncnc(Nc4cccc(Cl)c4)c3c2)n1` were, in that order, 4.82 µM and 2.16 µM.
The like results for `O=C(/C=C/c1ncc2ccccc2n1)Nc1ccc2ncnc(Nc3cccc(Cl)c3)c2c1` were, in that order, 7.79 µM and 3.35 µM.
For `Clc1cccc(Nc2ncnc3ccc(NCc4ccc(Br)s4)cc23)c1`, the Activity result in the assay with A549 [3], in the assay with A549 [5] and in the assay on A549 [7] was “Dose-dependent effect” each time. Further, the result in the assay with A549 [4], with A549 [6] and with A549 [8] was Active. The IC50 in assay [1] is 1.5 µM; in the assay on HepG2 it was 3.11 µM; with A549 [2], 0.82 µM.
Consider `Clc1cccc(Nc2ncnc3ccc(NCc4c[nH]c5ccccc45)cc23)c1`, for which the IC50 in the assay with HepG2 was 5.26 µM; in the assay with A549 [2], 2.33 µM.
Take `O=C(/C=C/c1cccnc1Cl)Nc1ccc2ncnc(Nc3cccc(Cl)c3)c2c1`: the IC50 in assay [1] was 3.6 µM; in the assay with HepG2, 4.42 µM; with A549 [2] it was 2.92 µM.
On to `O=C(/C=C/c1cccc(Br)n1)Nc1ccc2ncnc(Nc3cccc(Cl)c3)c2c1`, for which the values for the IC50 in the assay on HepG2 and in the assay on A549 [2] were 10.7 µM and 4.16 µM, respectively.
In the case of `O=C(/C=C/c1cccnc1)Nc1ccc2ncnc(Nc3cccc(Cl)c3)c2c1`, the IC50 was determined as 4.7 µM in [1], 9.12 µM with HepG2 and 4.32 µM with A549 [2].
As for `Cc1cccc(CNc2ccc3ncnc(Nc4cccc(Cl)c4)c3c2)n1`, the IC50 with HepG2 turned out to be 3.63 µM; in the assay with A549 [2] it was 1.06 µM.
With `O=C(/C=C/c1cccs1)Nc1ccc2ncnc(Nc3cccc(Cl)c3)c2c1`, the IC50 in [1] came out at 8.8 µM; with HepG2 it was 10.4 µM; with A549 [2] it was 9.31 µM.
Regarding `CSCCCNc1ccc2ncnc(Nc3cccc(Cl)c3)c2c1`, the concentration for half-maximal inhibition (IC50) in [1] is 5.1 µM; in the assay with HepG2, 8.92 µM; in the assay with A549 [2] it was 3.82 µM.
Turning to `Clc1cccc(Nc2ncnc3ccc(NCc4cccnc4)cc23)c1`, the IC50 with HepG2 was 4.14 µM; in the assay on A549 [2] it was 2.67 µM.
As for `Clc1cccc(Nc2ncnc3ccc(NCc4cccc(Br)n4)cc23)c1`, the IC50 in assay [1] was 4.1 µM; in the assay with HepG2, 3.87 µM; in the assay with A549 [2], 2.95 µM.
The like results for `Clc1cccc(Nc2ncnc3ccc(NCc4cccs4)cc23)c1` were, in that order, 3.4 µM, 3.58 µM and 2.08 µM.
`O=C(/C=C/c1c[nH]c2ccccc12)Nc1ccc2ncnc(Nc3cccc(Cl)c3)c2c1`: the concentration for half-maximal inhibition (IC50) in the assay on HepG2 was 7.02 µM; in the assay on A549 [2] it was 3.67 µM.
